# Measurements from patent publication US20250324971A1, “HERBICIDAL DERIVATIVES” (SYNGENTA CROP PROTECTION AG, priority 2022, published 2025).
# Assays:
# Type in all cases: in vivo
# [1] = system: Ipomoea hederacea (IPOHE); assay: Post-Emergence Test (herbicidal, glasshouse pots); settings: evaluated after 13 days
# Method: (§1) Seeds of a variety of test species are sown in standard soil in pots (Setaria faberi (SETFA), Ipomoea hederacea (IPOHE), Echinochloa crus-galli (ECHCG), (Amaranthus retoflexus (AMARE), Zea mays (ZEAMX), and Amaranthus palmeri (AMAPA)). After 8 days cultivation under controlled conditions in a glasshouse (at 24° C./16° C., day/night; 14 hours light; 65% humidity), the plants arm sprayed with an aqueous spray solution derived from the formulation of the technical active ingredient in acetone/water (50:50) solution containing 0.5% Tween 20 (polyoxyethylene sorbitan monolaurate, CAS RN 9005-84-5). Rate of application is shown in g/ha in the tables below. The test plants are then grown in a glasshouse under controlled conditions in a glasshouse (at 24° C./16° C., day/night; 14 hours light; 65% humidity) and watered twice daily. After 13 days the test is evaluated for the percentage damage caused to the plant. The biological activities are shown in the following table on a five-point scale (5=81-100%; 4=61-80%; 3=41-60%; 2=21-40%; 1=0-20%; -=not tested).
# [2] = system: Echinochloa crus-galli (ECHCG); assay: Post-Emergence Test (herbicidal, glasshouse pots); settings: evaluated after 13 days
# Method: as §1
# [3] = system: Amaranthus retoflexus (AMARE); assay: Post-Emergence Test (herbicidal, glasshouse pots); settings: evaluated after 13 days
# Method: as §1
# [4] = system: Amaranthus palmeri (AMAPA); assay: Post-Emergence Test (herbicidal, glasshouse pots); settings: evaluated after 13 days
# Method: as §1
# [5] = system: Zea mays (ZEAMX); assay: Post-Emergence Test (herbicidal, glasshouse pots); settings: evaluated after 13 days
# Method: as §1
# [6] = system: Ipomoea hederacea (IPOHE); assay: Pre-Emergence Test (herbicidal, glasshouse pots); settings: rate 1000 g/ha, evaluated after 13 days, five-point scale
# [7] = system: Amaranthus palmeri (AMAPA); assay: Pre-Emergence Test (herbicidal, glasshouse pots); settings: rate 1000 g/ha, evaluated after 13 days, five-point scale
# [8] = system: Echinochloa crus-galli (ECHCG); assay: Pre-Emergence Test (herbicidal, glasshouse pots); settings: rate 1000 g/ha, evaluated after 13 days, five-point scale
# [9] = system: Zea mays (ZEAMX); assay: Pre-Emergence Test (herbicidal, glasshouse pots); settings: rate 1000 g/ha, evaluated after 13 days, five-point scale
# [10] = system: Amaranthus retoflexus (AMARE); assay: Pre-Emergence Test (herbicidal, glasshouse pots); settings: rate 1000 g/ha, evaluated after 13 days, five-point scale
smiles,measurement,setting,value
"CCn1c(Nc2ccccc2F)cc(=O)c(C(=O)O)c1-c1ccc(Cl)c(Cl)c1 [Compound 1, 2-(3,4-dichlorophenyl)-1-ethyl-6-(2-fluoroanilino)-4-oxo-pyridine-3-carboxylic acid]",Post-Emergence Test IPHOE percentage damage (five-point scale),[1]; rate 250 g/ha,2 (2=21-40%)
same,Post-Emergence Test ECHCG percentage damage (five-point scale),[2]; rate 250 g/ha,0
same,Post-Emergence Test AMARE percentage damage (five-point scale),[3]; rate 250 g/ha,1 (1=0-20%)
same,Post-Emergence Test AMAPA percentage damage (five-point scale),[4]; rate 250 g/ha,1 (1=0-20%)
same,Post-Emergence Test ZEAMX percentage damage (five-point scale),[5]; rate 250 g/ha,0
"CCn1c(OC)cc(=O)c(C(=O)O)c1-c1ccc(Cl)c(Cl)c1 [Compound 5, 2-(3,4-dichlorophenyl)-1-ethyl-6-methoxy-4-oxo-pyridine-3-carboxylic acid]",Post-Emergence Test IPHOE percentage damage (five-point scale),[1]; rate 250 g/ha,3 (3=41-60%)
same,Post-Emergence Test ECHCG percentage damage (five-point scale),[2]; rate 250 g/ha,3 (3=41-60%)
same,Post-Emergence Test AMARE percentage damage (five-point scale),[3]; rate 250 g/ha,0
same,Post-Emergence Test AMAPA percentage damage (five-point scale),[4]; rate 250 g/ha,0
same,Post-Emergence Test ZEAMX percentage damage (five-point scale),[5]; rate 250 g/ha,2 (2=21-40%)
"CCn1c(Sc2ccc(F)cc2)cc(=O)c(C(=O)O)c1-c1ccc(Cl)c(Cl)c1 [Compound 10, 2-(3,4-dichlorophenyl)-1-ethyl-6-(4-fluorophenyl)sulfanyl-4-oxo-pyridine-3-carboxylic acid]","percentage damage caused to the plant, IPHOE",[6],2 (2=21-40%)
same,"percentage damage caused to the plant, AMAPA",[7],0
same,Post-Emergence Test IPHOE percentage damage (five-point scale),[1]; rate 1000 g/ha,2 (2=21-40%)
same,Post-Emergence Test ECHCG percentage damage (five-point scale),[2]; rate 1000 g/ha,2 (2=21-40%)
same,Post-Emergence Test AMARE percentage damage (five-point scale),[3]; rate 1000 g/ha,1 (1=0-20%)
same,Post-Emergence Test AMAPA percentage damage (five-point scale),[4]; rate 1000 g/ha,1 (1=0-20%)
same,Post-Emergence Test ZEAMX percentage damage (five-point scale),[5]; rate 1000 g/ha,1 (1=0-20%)
same,"percentage damage caused to the plant, ECHCG",[8],2 (2=21-40%)
same,"percentage damage caused to the plant, ZEAMX",[9],0
same,"percentage damage caused to the plant, AMARE",[10],1 (1=0-20%)
"CCn1c(Oc2ccc(OC)cc2)cc(=O)c(C(=O)O)c1-c1ccc(Cl)c(Cl)c1 [Compound 11, 2-(3,4-dichlorophenyl)-1-ethyl-6-(4-methoxyphenoxy)-4-oxo-pyridine-3-carboxylic acid]","percentage damage caused to the plant, IPHOE",[6],5 (5=81-100%)
same,"percentage damage caused to the plant, AMAPA",[7],1 (1=0-20%)
same,Post-Emergence Test IPHOE percentage damage (five-point scale),[1]; rate 1000 g/ha,3 (3=41-60%)
same,Post-Emergence Test ECHCG percentage damage (five-point scale),[2]; rate 1000 g/ha,1 (1=0-20%)
same,Post-Emergence Test AMARE percentage damage (five-point scale),[3]; rate 1000 g/ha,5 (5=81-100%)
same,Post-Emergence Test AMAPA percentage damage (five-point scale),[4]; rate 1000 g/ha,5 (5=81-100%)
same,Post-Emergence Test ZEAMX percentage damage (five-point scale),[5]; rate 1000 g/ha,2 (2=21-40%)
same,"percentage damage caused to the plant, ECHCG",[8],0
same,"percentage damage caused to the plant, ZEAMX",[9],1 (1=0-20%)
same,"percentage damage caused to the plant, AMARE",[10],2 (2=21-40%)
"CCn1c(Oc2cccc(F)c2)cc(=O)c(C(=O)O)c1-c1ccc(Cl)c(Cl)c1 [Compound 12, 2-(3,4-dichlorophenyl)-1-ethyl-6-(3-fluorophenoxy)-4-oxo-pyridine-3-carboxylic acid]","percentage damage caused to the plant, IPHOE",[6],5 (5=81-100%)
same,"percentage damage caused to the plant, AMAPA",[7],4 (4=61-80%)
same,Post-Emergence Test IPHOE percentage damage (five-point scale),[1]; rate 1000 g/ha,5 (5=81-100%)
same,Post-Emergence Test ECHCG percentage damage (five-point scale),[2]; rate 1000 g/ha,4 (4=61-80%)
same,Post-Emergence Test AMARE percentage damage (five-point scale),[3]; rate 1000 g/ha,5 (5=81-100%)
same,Post-Emergence Test AMAPA percentage damage (five-point scale),[4]; rate 1000 g/ha,5 (5=81-100%)
same,Post-Emergence Test ZEAMX percentage damage (five-point scale),[5]; rate 1000 g/ha,4 (4=61-80%)
same,"percentage damage caused to the plant, ECHCG",[8],5 (5=81-100%)
same,"percentage damage caused to the plant, ZEAMX",[9],4 (4=61-80%)
same,"percentage damage caused to the plant, AMARE",[10],4 (4=61-80%)
"CCn1c(Oc2cc(Cl)cc(Cl)c2)cc(=O)c(C(=O)O)c1-c1ccc(Cl)c(Cl)c1 [Compound 16, 6-(3,5-dichlorophenoxy)-2-(3,4-dichlorophenyl)-1-ethyl-4-oxo-pyridine-3-carboxylic acid]",Post-Emergence Test IPHOE percentage damage (five-point scale),[1]; rate 1000 g/ha,2 (2=21-40%)
same,Post-Emergence Test ECHCG percentage damage (five-point scale),[2]; rate 1000 g/ha,1 (1=0-20%)
same,Post-Emergence Test AMARE percentage damage (five-point scale),[3]; rate 1000 g/ha,2 (2=21-40%)
same,Post-Emergence Test AMAPA percentage damage (five-point scale),[4]; rate 1000 g/ha,1 (1=0-20%)
same,Post-Emergence Test ZEAMX percentage damage (five-point scale),[5]; rate 1000 g/ha,1 (1=0-20%)
CCn1c(Nc2ccc(C3CC3)cc2)cc(=O)c(C(=O)O)c1-c1ccc(Cl)c(Cl)c1 [Compound 22],"percentage damage caused to the plant, IPHOE",[6],0
same,"percentage damage caused to the plant, AMAPA",[7],0
same,"percentage damage caused to the plant, ECHCG",[8],0
same,"percentage damage caused to the plant, ZEAMX",[9],0
same,"percentage damage caused to the plant, AMARE",[10],1 (1=0-20%)
"CCn1c(Oc2ccc(Cl)cc2Cl)cc(=O)c(C(=O)O)c1-c1ccc(Cl)c(Cl)c1 [Compound 24, 6-(2,4-dichlorophenoxy)-2-(3,4-dichlorophenyl)-1-ethyl-4-oxo-pyridine-3-carboxylic acid]",Post-Emergence Test IPHOE percentage damage (five-point scale),[1]; rate 1000 g/ha,1 (1=0-20%)
same,Post-Emergence Test ECHCG percentage damage (five-point scale),[2]; rate 1000 g/ha,0
same,Post-Emergence Test AMARE percentage damage (five-point scale),[3]; rate 1000 g/ha,1 (1=0-20%)
same,Post-Emergence Test AMAPA percentage damage (five-point scale),[4]; rate 1000 g/ha,1 (1=0-20%)
same,Post-Emergence Test ZEAMX percentage damage (five-point scale),[5]; rate 1000 g/ha,1 (1=0-20%)
"CCn1c(Oc2cc(Cl)cc(OC)c2)cc(=O)c(C(=O)O)c1-c1ccc(Cl)c(Cl)c1 [Compound 25, 6-(3-chloro-5-methoxy-phenoxy)-2-(3,4-dichlorophenyl)-1-ethyl-4-oxo-pyridine-3-carboxylic acid]",Post-Emergence Test IPHOE percentage damage (five-point scale),[1]; rate 1000 g/ha,1 (1=0-20%)
same,Post-Emergence Test ECHCG percentage damage (five-point scale),[2]; rate 1000 g/ha,0
same,Post-Emergence Test AMARE percentage damage (five-point scale),[3]; rate 1000 g/ha,1 (1=0-20%)
same,Post-Emergence Test AMAPA percentage damage (five-point scale),[4]; rate 1000 g/ha,1 (1=0-20%)
same,Post-Emergence Test ZEAMX percentage damage (five-point scale),[5]; rate 1000 g/ha,0
"CCn1c(Nc2ccc(Cl)cc2F)cc(=O)c(C(=O)O)c1-c1ccc(Cl)c(Cl)c1 [Compound 29, 6-(4-chloro-2-fluoro-anilino)-2-(3,4-dichlorophenyl)-1-ethyl-4-oxo-pyridine-3-carboxylic acid]",Post-Emergence Test IPHOE percentage damage (five-point scale),[1]; rate 1000 g/ha,3 (3=41-60%)
same,Post-Emergence Test ECHCG percentage damage (five-point scale),[2]; rate 1000 g/ha,0
same,Post-Emergence Test AMARE percentage damage (five-point scale),[3]; rate 1000 g/ha,2 (2=21-40%)
same,Post-Emergence Test AMAPA percentage damage (five-point scale),[4]; rate 1000 g/ha,2 (2=21-40%)
same,Post-Emergence Test ZEAMX percentage damage (five-point scale),[5]; rate 1000 g/ha,0
"CCn1c(Nc2cccc(Cl)n2)cc(=O)c(C(=O)O)c1-c1ccc(Cl)c(Cl)c1 [Compound 30, 6-[(6-chloro-2-pyridyl)amino]-2-(3,4-dichlorophenyl)-1-ethyl-4-oxo-pyridine-3-carboxylic acid]",Post-Emergence Test IPHOE percentage damage (five-point scale),[1]; rate 1000 g/ha,2 (2=21-40%)
same,Post-Emergence Test ECHCG percentage damage (five-point scale),[2]; rate 1000 g/ha,0
same,Post-Emergence Test AMARE percentage damage (five-point scale),[3]; rate 1000 g/ha,2 (2=21-40%)
same,Post-Emergence Test AMAPA percentage damage (five-point scale),[4]; rate 1000 g/ha,2 (2=21-40%)
same,Post-Emergence Test ZEAMX percentage damage (five-point scale),[5]; rate 1000 g/ha,1 (1=0-20%)
"CCn1c(Nc2cccc(C)n2)cc(=O)c(C(=O)O)c1-c1ccc(Cl)c(Cl)c1 [Compound 32, 2-(3,4-dichlorophenyl)-1-ethyl-6-[(6-methyl-2-pyridyl)amino]-4-oxo-pyridine-3-carboxylic acid]",Post-Emergence Test IPHOE percentage damage (five-point scale),[1]; rate 1000 g/ha,1 (1=0-20%)
same,Post-Emergence Test ECHCG percentage damage (five-point scale),[2]; rate 1000 g/ha,2 (2=21-40%)
same,Post-Emergence Test AMARE percentage damage (five-point scale),[3]; rate 1000 g/ha,4 (4=61-80%)
same,Post-Emergence Test AMAPA percentage damage (five-point scale),[4]; rate 1000 g/ha,3 (3=41-60%)
same,Post-Emergence Test ZEAMX percentage damage (five-point scale),[5]; rate 1000 g/ha,1 (1=0-20%)
